Laboratory results reported in ChEMBL document CHEMBL1909046, “DrugMatrix in vitro pharmacology data”.
pIC50: −log10 of the molar value.

System: not listed separately
Assay: DRUGMATRIX: Serotonin (5-Hydroxytryptamine) 5-HT3 radioligand binding (ligand: [3H] GR-65630)
Assay type: cell membranes, Membrane
Settings: hek293; Not Active = under 50% inhibition at 10 µM

SMILES | IC50 | Ki
N=C(N)NC(=O)Cc1c(Cl)cccc1Cl [GUANFACINE] | Not Active | Not Active
Oc1c(Cl)cc(Cl)c(Cl)c1Cc1c(O)c(Cl)cc(Cl)c1Cl [HEXACHLOROPHENE] | Not Active | Not Active
NNc1nncc2ccccc12 [HYDRALAZINE] | Not Active | Not Active
CC(=O)[C@@]1(O)CC[C@H]2[C@@H]3CCC4=CC(=O)CC[C@]4(C)[C@H]3CC[C@@]21C [HYDROXYPROGESTERONE] | Not Active | Not Active
COC1=C(OC)C(=O)C(CCCCCCCCCCO)=C(C)C1=O [IDEBENONE] | Not Active | Not Active
CC(C)NNC(=O)c1ccncc1 [IPRONIAZID] | Not Active | Not Active
Cc1c(OCC(F)(F)F)ccnc1C[S+]([O-])c1nc2ccccc2[nH]1 (configuration not stated) [LANSOPRAZOLE] | Not Active | Not Active

System: not listed separately
Assay: DRUGMATRIX: Phosphodiesterase PDE3 enzyme inhibition (substrate: [3H]cAMP + cAMP)
Assay type: tissue-based, Homo sapiens
Settings: platelet; Not Active = under 50% inhibition at 10 µM

SMILES | IC50 | Ki
N=C(N)NC(=O)Cc1c(Cl)cccc1Cl [GUANFACINE] | Not Active | Not Active
NNc1nncc2ccccc12 [HYDRALAZINE] | Not Active | Not Active
CC(=O)[C@@]1(O)CC[C@H]2[C@@H]3CCC4=CC(=O)CC[C@]4(C)[C@H]3CC[C@@]21C [HYDROXYPROGESTERONE] | Not Active | Not Active
COC1=C(OC)C(=O)C(CCCCCCCCCCO)=C(C)C1=O [IDEBENONE] | Not Active | Not Active
CC(C)NNC(=O)c1ccncc1 [IPRONIAZID] | Not Active | Not Active
Cc1c(OCC(F)(F)F)ccnc1C[S+]([O-])c1nc2ccccc2[nH]1 (configuration not stated) [LANSOPRAZOLE] | Not Active | Not Active

Same assay, conditions: platelet; Not Active = under 50% inhibition at 10 µM; read-out: IC50

SMILES | pIC50
Oc1c(Cl)cc(Cl)c(Cl)c1Cc1c(O)c(Cl)cc(Cl)c1Cl [HEXACHLOROPHENE] | 5.73

Target: T1, Angiotensin-converting enzyme (Oryctolagus cuniculus, UniProt P12822);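 note: enzymatic inhibition of angiotensin-converting enzyme measured with FAPGG as the substrate; in other assays of this panel Not Active means under 50% inhibition at 10 µM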
T1 sequence (P12822 whole entry): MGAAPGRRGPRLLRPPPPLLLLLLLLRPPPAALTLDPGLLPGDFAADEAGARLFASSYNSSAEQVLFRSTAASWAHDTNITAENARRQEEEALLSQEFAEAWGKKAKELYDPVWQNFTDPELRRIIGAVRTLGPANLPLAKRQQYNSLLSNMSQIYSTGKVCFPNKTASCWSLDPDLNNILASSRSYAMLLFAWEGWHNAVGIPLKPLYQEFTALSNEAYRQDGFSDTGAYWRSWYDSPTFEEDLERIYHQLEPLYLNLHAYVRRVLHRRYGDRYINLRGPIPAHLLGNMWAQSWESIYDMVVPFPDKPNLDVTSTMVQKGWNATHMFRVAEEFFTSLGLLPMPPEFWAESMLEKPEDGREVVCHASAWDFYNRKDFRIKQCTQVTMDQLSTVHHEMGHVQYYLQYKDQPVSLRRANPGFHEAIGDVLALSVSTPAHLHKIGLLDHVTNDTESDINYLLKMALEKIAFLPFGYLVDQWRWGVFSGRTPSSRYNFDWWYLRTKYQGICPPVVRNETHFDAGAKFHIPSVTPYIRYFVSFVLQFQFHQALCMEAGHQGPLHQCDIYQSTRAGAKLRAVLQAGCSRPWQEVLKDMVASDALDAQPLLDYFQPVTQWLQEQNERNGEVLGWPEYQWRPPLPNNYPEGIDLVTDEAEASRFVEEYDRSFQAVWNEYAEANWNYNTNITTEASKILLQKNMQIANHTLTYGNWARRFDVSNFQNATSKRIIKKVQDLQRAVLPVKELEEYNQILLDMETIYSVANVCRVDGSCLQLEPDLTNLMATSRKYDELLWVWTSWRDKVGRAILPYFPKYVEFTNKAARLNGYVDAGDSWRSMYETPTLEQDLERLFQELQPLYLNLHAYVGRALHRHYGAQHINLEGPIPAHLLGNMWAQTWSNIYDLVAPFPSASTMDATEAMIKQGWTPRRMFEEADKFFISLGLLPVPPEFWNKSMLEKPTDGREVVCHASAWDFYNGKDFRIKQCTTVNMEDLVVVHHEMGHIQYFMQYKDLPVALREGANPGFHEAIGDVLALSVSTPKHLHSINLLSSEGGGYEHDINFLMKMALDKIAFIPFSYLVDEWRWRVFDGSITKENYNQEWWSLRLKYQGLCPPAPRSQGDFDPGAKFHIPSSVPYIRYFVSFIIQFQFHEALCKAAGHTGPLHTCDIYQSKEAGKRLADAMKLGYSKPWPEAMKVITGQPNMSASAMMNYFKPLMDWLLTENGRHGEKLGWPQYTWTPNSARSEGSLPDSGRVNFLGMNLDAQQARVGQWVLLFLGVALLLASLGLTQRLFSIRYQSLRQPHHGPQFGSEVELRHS
Assay: not given
Assay type: tissue-based, Lung
Settings: not given

SMILES | IC50
N=C(N)NC(=O)Cc1c(Cl)cccc1Cl [GUANFACINE] | Not Active
Oc1c(Cl)cc(Cl)c(Cl)c1Cc1c(O)c(Cl)cc(Cl)c1Cl [HEXACHLOROPHENE] | Not Active
NNc1nncc2ccccc12 [HYDRALAZINE] | Not Active
CC(=O)[C@@]1(O)CC[C@H]2[C@@H]3CCC4=CC(=O)CC[C@]4(C)[C@H]3CC[C@@]21C [HYDROXYPROGESTERONE] | Not Active
COC1=C(OC)C(=O)C(CCCCCCCCCCO)=C(C)C1=O [IDEBENONE] | Not Active
CC(C)NNC(=O)c1ccncc1 [IPRONIAZID] | Not Active
Cc1c(OCC(F)(F)F)ccnc1C[S+]([O-])c1nc2ccccc2[nH]1 (configuration not stated) [LANSOPRAZOLE] | Not Active

Target: T2, Adenosine receptor A1 (Homo sapiens, UniProt P30542);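 note: radioligand binding assay at the adenosine A1 receptor, with DPCPX serving as the labelled ligand; in other assays of this panel Not Active means under 50% inhibition at 10 µM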
T2 sequence (P30542 whole entry): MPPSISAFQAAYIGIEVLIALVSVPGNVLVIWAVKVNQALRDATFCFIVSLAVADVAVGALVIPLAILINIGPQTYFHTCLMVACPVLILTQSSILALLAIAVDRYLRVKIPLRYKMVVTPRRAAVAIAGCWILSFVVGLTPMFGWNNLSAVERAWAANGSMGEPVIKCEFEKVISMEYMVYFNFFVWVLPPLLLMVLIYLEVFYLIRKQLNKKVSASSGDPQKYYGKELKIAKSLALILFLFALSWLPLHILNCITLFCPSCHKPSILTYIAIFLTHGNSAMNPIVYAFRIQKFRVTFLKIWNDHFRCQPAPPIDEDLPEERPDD
Assay: not given
Assay type: cell membranes, CHO, Membrane
Settings: cho

SMILES | IC50
N=C(N)NC(=O)Cc1c(Cl)cccc1Cl [GUANFACINE] | Not Active
Oc1c(Cl)cc(Cl)c(Cl)c1Cc1c(O)c(Cl)cc(Cl)c1Cl [HEXACHLOROPHENE] | Not Active
NNc1nncc2ccccc12 [HYDRALAZINE] | Not Active
CC(=O)[C@@]1(O)CC[C@H]2[C@@H]3CCC4=CC(=O)CC[C@]4(C)[C@H]3CC[C@@]21C [HYDROXYPROGESTERONE] | Not Active
COC1=C(OC)C(=O)C(CCCCCCCCCCO)=C(C)C1=O [IDEBENONE] | Not Active
CC(C)NNC(=O)c1ccncc1 [IPRONIAZID] | Not Active
Cc1c(OCC(F)(F)F)ccnc1C[S+]([O-])c1nc2ccccc2[nH]1 (configuration not stated) [LANSOPRAZOLE] | Not Active

Target: Vascular endothelial growth factor receptor 1 (Homo sapiens, UniProt P17948); note: in other assays of this panel Not Active means under 50% inhibition at 10 µM
Assay: biochemical
Assay type: cell-based, HUVEC
Settings: huvec

Sequence of Vascular endothelial growth factor receptor 1 (P17948 whole entry): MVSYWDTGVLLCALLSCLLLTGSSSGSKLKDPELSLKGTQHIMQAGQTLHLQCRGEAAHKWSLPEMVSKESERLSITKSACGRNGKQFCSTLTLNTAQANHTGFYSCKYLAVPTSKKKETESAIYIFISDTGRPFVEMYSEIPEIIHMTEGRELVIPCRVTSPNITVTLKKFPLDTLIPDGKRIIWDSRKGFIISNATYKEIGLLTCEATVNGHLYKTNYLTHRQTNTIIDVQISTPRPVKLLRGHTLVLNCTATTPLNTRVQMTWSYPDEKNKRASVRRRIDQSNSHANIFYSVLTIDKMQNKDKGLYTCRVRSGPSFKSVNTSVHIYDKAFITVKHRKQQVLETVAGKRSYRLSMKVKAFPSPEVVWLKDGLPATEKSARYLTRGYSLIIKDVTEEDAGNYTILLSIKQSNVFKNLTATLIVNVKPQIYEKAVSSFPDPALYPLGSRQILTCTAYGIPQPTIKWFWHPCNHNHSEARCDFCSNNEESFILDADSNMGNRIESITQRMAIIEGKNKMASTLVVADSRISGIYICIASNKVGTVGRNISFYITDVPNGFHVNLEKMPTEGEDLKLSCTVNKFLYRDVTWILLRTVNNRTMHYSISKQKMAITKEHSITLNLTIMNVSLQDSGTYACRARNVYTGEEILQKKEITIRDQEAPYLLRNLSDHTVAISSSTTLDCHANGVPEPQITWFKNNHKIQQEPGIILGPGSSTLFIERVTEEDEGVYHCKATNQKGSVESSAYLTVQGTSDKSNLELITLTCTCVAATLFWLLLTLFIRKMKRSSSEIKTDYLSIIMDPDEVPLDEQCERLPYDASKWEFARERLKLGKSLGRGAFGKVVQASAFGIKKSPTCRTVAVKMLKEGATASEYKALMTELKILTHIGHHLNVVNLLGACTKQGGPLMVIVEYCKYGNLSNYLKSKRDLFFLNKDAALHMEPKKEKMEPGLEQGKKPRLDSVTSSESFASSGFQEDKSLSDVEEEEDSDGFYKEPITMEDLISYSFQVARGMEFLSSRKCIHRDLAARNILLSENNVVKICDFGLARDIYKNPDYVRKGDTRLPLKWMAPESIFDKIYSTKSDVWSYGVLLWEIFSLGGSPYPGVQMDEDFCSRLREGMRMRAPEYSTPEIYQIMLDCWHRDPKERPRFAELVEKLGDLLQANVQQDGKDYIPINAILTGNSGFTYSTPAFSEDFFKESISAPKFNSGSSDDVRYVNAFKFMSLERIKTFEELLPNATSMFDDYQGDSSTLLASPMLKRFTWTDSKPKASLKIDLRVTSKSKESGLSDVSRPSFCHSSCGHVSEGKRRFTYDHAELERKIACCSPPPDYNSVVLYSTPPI

SMILES | IC50
N=C(N)NC(=O)Cc1c(Cl)cccc1Cl [GUANFACINE] | Not Active
Oc1c(Cl)cc(Cl)c(Cl)c1Cc1c(O)c(Cl)cc(Cl)c1Cl [HEXACHLOROPHENE] | Not Active
NNc1nncc2ccccc12 [HYDRALAZINE] | Not Active
CC(=O)[C@@]1(O)CC[C@H]2[C@@H]3CCC4=CC(=O)CC[C@]4(C)[C@H]3CC[C@@]21C [HYDROXYPROGESTERONE] | Not Active
COC1=C(OC)C(=O)C(CCCCCCCCCCO)=C(C)C1=O [IDEBENONE] | Not Active
CC(C)NNC(=O)c1ccncc1 [IPRONIAZID] | Not Active
Cc1c(OCC(F)(F)F)ccnc1C[S+]([O-])c1nc2ccccc2[nH]1 (configuration not stated) [LANSOPRAZOLE] | Not Active

Target: T3, Type-2 angiotensin II receptor (Homo sapiens, UniProt P50052); note: in other assays of this panel Not Active means under 50% inhibition at 10 µM
T3 sequence (P50052 whole entry): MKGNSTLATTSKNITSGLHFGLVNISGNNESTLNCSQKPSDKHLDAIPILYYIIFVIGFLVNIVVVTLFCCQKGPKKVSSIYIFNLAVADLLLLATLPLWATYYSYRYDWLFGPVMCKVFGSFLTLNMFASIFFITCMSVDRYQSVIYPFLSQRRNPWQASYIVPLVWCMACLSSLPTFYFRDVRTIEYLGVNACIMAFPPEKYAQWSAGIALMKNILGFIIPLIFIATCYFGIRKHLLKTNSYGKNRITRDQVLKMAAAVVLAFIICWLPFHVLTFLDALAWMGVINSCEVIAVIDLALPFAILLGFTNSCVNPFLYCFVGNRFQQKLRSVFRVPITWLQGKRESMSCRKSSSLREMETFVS
Assay: not given
Assay type: cell-based
Settings: cho-k1

SMILES | IC50
N=C(N)NC(=O)Cc1c(Cl)cccc1Cl [GUANFACINE] | Not Active
Oc1c(Cl)cc(Cl)c(Cl)c1Cc1c(O)c(Cl)cc(Cl)c1Cl [HEXACHLOROPHENE] | Not Active
NNc1nncc2ccccc12 [HYDRALAZINE] | Not Active
CC(=O)[C@@]1(O)CC[C@H]2[C@@H]3CCC4=CC(=O)CC[C@]4(C)[C@H]3CC[C@@]21C [HYDROXYPROGESTERONE] | Not Active
COC1=C(OC)C(=O)C(CCCCCCCCCCO)=C(C)C1=O [IDEBENONE] | Not Active
CC(C)NNC(=O)c1ccncc1 [IPRONIAZID] | Not Active
Cc1c(OCC(F)(F)F)ccnc1C[S+]([O-])c1nc2ccccc2[nH]1 (configuration not stated) [LANSOPRAZOLE] | Not Active

Target: T4, C-X-C chemokine receptor type 1 (Homo sapiens, UniProt P25024); note: in other assays of this panel Not Active means under 50% inhibition at 10 µM
T4 sequence (P25024 whole entry): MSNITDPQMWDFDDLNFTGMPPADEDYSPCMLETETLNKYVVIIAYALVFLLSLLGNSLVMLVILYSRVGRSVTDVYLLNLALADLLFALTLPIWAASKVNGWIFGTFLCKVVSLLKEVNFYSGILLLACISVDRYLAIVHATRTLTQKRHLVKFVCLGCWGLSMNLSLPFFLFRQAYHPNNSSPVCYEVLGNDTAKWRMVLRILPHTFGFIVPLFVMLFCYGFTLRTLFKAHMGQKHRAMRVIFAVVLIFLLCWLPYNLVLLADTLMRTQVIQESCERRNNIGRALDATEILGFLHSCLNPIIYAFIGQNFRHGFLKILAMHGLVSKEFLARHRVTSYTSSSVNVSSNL
Assay: not given
Settings: not given

SMILES | IC50
N=C(N)NC(=O)Cc1c(Cl)cccc1Cl [GUANFACINE] | Not Active
Oc1c(Cl)cc(Cl)c(Cl)c1Cc1c(O)c(Cl)cc(Cl)c1Cl [HEXACHLOROPHENE] | Not Active
NNc1nncc2ccccc12 [HYDRALAZINE] | Not Active
CC(=O)[C@@]1(O)CC[C@H]2[C@@H]3CCC4=CC(=O)CC[C@]4(C)[C@H]3CC[C@@]21C [HYDROXYPROGESTERONE] | Not Active
COC1=C(OC)C(=O)C(CCCCCCCCCCO)=C(C)C1=O [IDEBENONE] | Not Active
CC(C)NNC(=O)c1ccncc1 [IPRONIAZID] | Not Active
Cc1c(OCC(F)(F)F)ccnc1C[S+]([O-])c1nc2ccccc2[nH]1 (configuration not stated) [LANSOPRAZOLE] | Not Active
